Source: US5475029A, “Farnesyl compounds as cholesterol lowering agents” (The Board of Trustees of the Leland Stanford Junior …, priority 1993, dated 1995)

Legend:
[1] = system: HMGal; assay: HMGal degradation rate (pulse-chase); format: cell-based; conditions: 10 μg/ml during chase; untreated 6.4 hours
Protocol: Measurement of HMGal and HMG-CoA Reductase Degradation Rates Cells grown in 60×15 mm dishes were washed once with ice-cold PBS and starved for 1 hour in 1 ml of methionine-free MEM supplemented with 5% LPS, 250 μg/ml of active geneticin, 10 μM compactin, and 0.1 mM mevalonate. These cells were radio-labeled for 2 hours in 300 μl of the methionine-free starvation medium containing 100 μCi of Tran^35 S-label (>1,000 Ci/mmol). Cells were incubated in an MEM-based chase medium containing 2 mM methionine, 5% LPS, 250 μg/ml of active geneticin, 10 μM compactin, and 0.1 mM mevalonate. During the chase period, some plates also had either 20 mM mevalonate, 10 μg/ml farnesyl acetate or 10 μg/ml ethyl farnesyl ether added to them as indicated in the figure legend. Following the chase, cells were washed, lysed and the HMGal and HMG-CoA reductase proteins were immunoprecipitated, subjected to SDS-PAGE and quantified.
In order to test whether the farnesyl compounds impact degradation, the rates of degradation for HMGal, HMG-CoA reductase, and total cellular protein were measured in the presence and absence of 10 μg/ml farnesyl acetate and ethyl farnesyl ether.

[2] = system: HMGal; assay: HMGal activity (in vitro β-galactosidase specific activity) in CHO-HMGal cells; format: cell-based
Protocol: Cell Culture--All cells were grown as monolayers at 37° C. in an atmosphere of 5% CO2. CHO-HMGal cells were grown in minimal essential medium (MEM) supplemented with 0.25 mg/ml active geneticin and either 5% fetal calf serum (FCS) or 5% lipid-poor fetal calf serum (LPS).
Stock Solutions--Stock solutions of farnesyl acetate, ethyl farnesyl ether, and the mixture of 25-hydroxycholesterol with cholesterol were all made in 100% ethanol at 100 times the final concentration. In all experiments in which these compounds were used, there is a final concentration of 1% ethanol in the medium. For control, cells grown with "no additives" or "mevalonate" 100% ethanol was added to the medium to bring the final concentration of ethanol to 1%. The mevalonate stock solution was prepared at a concentration of 2M in 20 mM potassium phosphate buffer (pH 4.5).
β-galactosidase Specific Activity--In vitro β-galactosidase activity was measured using the substrate, o-nitrophenyl-β-D-galactopyranoside. Specific activities were calculated using protein concentration values.
Farnesyl acetate and ethyl farnesyl ether stimulate a reduction in HMGal activity--In an attempt to identify tile non-sterol metabolite(s) that triggers the down regulation of HMG-CoA reductase, five commercially available isoprenoid compounds were tested for their effects on HMGal activity in CHO-HMGal cells. Each of tile compounds tested closely resembled one of tile naturally occurring isoprenoid pyrophosphates, except that the pyrophosphate group had been replaced by either a hydroxyl or an […] group. The compounds tested included: 3-methyl-2-buten-1-ol, the alcohol of the five carbon isoprenoid-dimethylallyl pyrophosphate (a naturally occurring isomer of isopentenyl pyrophosphate); geraniol and geranyl acetate, the alcohol and the […] of the ten carbon isoprenoid-geranyl pyrophosphate; and farnesol and farnesyl acetate, the alcohol and the […] of the fifteen carbon isoprenoid-farnesyl pyrophosphate.
To confirm that the reduction in HMGal activity was the result of a regulatory function specifically targeting the membrane domain of HMGal, the effects of farnesyl acetate on β-galactosidase activity were measured in vitro for both CHO-HMGal cells and CHO-Gal cells. The CHO-Gal cells had been stably transfected with a construct identical to the HMGal construct (using the same vector, promoter, and 5' and 3' flanking regions) except that the construct in the CHO-Gal cells codes for a soluble β-galactosidase protein instead of the HMGal fusion protein with the membrane domain of HMG-CoA reductase. In this experiment, the CHO-Gal cells served to control for any artifacts farnesyl acetate might cause in the β-galactosidase assay or any nonspecific effects farnesyl acetate might have on the rates of protein synthesis or degradation.

[3] = system: cholesterol biosynthesis; assay: [3H]acetate incorporation into cholesterol in CHO-HMGal cells; format: cell-based
Protocol: Thin Layer Chromatography--TLC was performed using Analtech 250 μm silica gel G plates with a hexanes/diethyl ether (1:1) solvent system. Lipid standards were visualized by iodine staining. Bands were scraped from the plate and their radioactivity was measured.
Quantification of Radioactivity--Samples were suspended in 4 ml of scintillation fluid (Cytoscint from ICN). The radioactivity of the samples was measured using a Beckman LS-7500 scintillation counter.
Subsequently, the cells were labeled for 1,2, and 4 hours with [^3 H]acetate and harvested. The non-saponifiable lipid fraction from each cell type was extracted and separated by TLC. The radioactivity that co-migrated with cholesterol was measured and normalized for the amount of cellular protein.
Farnesyl acetate and ethyl farnesyl ether were only present during the labeling period so that any reduction in incorporation into cholesterol would be the result of inhibition and not a down regulation in HMG-CoA reductase.

[4] = system: squalene synthase; assay: Squalene synthase assay (cell lysate); format: biochemical; conditions: 4 nM to 0.2 mM
Protocol: Squalene Synthase Assay--The cell lysate was prepared immediately prior to running the assay. Cells were washed three times with PBS, once with a 0.1M potassium phosphate buffer (pH 7.4) containing 5 mM MgCl2 and 5 mM CHAPS, and once with a 0.01M potassium phosphate buffer (pH 7.4) containing 0.5 mM MgCl2 and 0.5 mM CHAPS. Cells were scraped with a rubber policeman in approximately 0.5 ml of the final wash buffer and dounce homogenized with 20 strokes, while on ice. An aliquot of cell lysate was examined with a light microscope to ensure that essentially all cells in the sample were lysed. An additional aliquot of cell lysate was saved for protein determination. […] The squalene was isolated by TLC and the radioactivity of the squalene bands was measured as previously described. […]
Since both farnesyl compounds have a structural similarity to farnesyl pyrophosphate, the substrate for squalene synthase, and some of the farnesyl compounds that have been tested function as a competitive inhibitor of squalene synthase, the effects of farnesyl acetate on in vitro squalene synthase activity was measured. As a positive control, squalene synthase activity was also measured in tile presence of zaragozic acid A, a potent competitive inhibitor of the enzyme. […]

## CC(=O)OCC=C(C)CCC=C(C)CCC=C(C)C [farnesyl acetate]
[1]
  half-life of HMGal: 3.9 h
  reduction of the half-life of HMGal: 40%
[2]; 10 μg/ml, 24 hour treatment
  reduction of HMGal activity: 70%
[2]; 20 μg/ml
  reduction of HMGal activity: 80%
[2]; five isoprenoid compounds tested
  reduction in HMGal activity at concentrations below the levels toxic to the cells: stimulated a reduction in HMGal activity
[3]; 24 hours pretreatment, then labeled 1, 2 and 4 hours, CHO-HMGal cells
  reduction in [3H]acetate incorporation into cholesterol: 80%
[3]; compound present only during the labeling period, no pretreatment
  reduction in [3H]acetate incorporation into cholesterol: 89%
[4]
  effect on in vitro squalene synthase activity: negligible effect
